Laboratory results from PubChem BioAssay AID2060624 (Molecular Pharmacology Branch, DTP, NCI, 2025).

System: 217524-143-R1-J4-PDC spheroids with HUVEC/MSC, viability
Experiment: Anticancer human tumor 217524-143-R1-J4-PDC patient-derived pancreatic carcinoma cell line growth inhibition [CLK]
Settings: for IC50: curve of first compound; for viability, T/C: stronger effect = lower value
Method in brief: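 Multi-cell-type spheroids combined patient-derived tumor cells with HUVEC endothelial cells and human mesenchymal stem cells. Paired agents were dosed in half-log steps down from about clinical Cmax, or from 10 microM where Cmax was unknown.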

[1] = second compound 0.0316 µM, first compound 0.0316 µM
[2] = second compound 0.0316 µM, first compound 0.1 µM
[3] = second compound 0.1 µM, first compound 0.0316 µM
[4] = second compound 0.1 µM, first compound 0.1 µM
[5] = second compound 0.316 µM, first compound 0.0316 µM
[6] = second compound 0.316 µM, first compound 0.1 µM
[7] = second compound 1 µM, first compound 0.0316 µM
[8] = second compound 1 µM, first compound 0.1 µM
[9] = second compound 3.16 µM, first compound 0.0316 µM
[10] = second compound 3.16 µM, first compound 0.1 µM
[11] = second compound 10 µM, first compound 0.0316 µM
[12] = second compound 10 µM, first compound 0.1 µM
[13] = second compound 0.0316 µM, first compound 0.316 µM
[14] = second compound 0.0316 µM, first compound 1 µM
[15] = second compound 0.0316 µM, first compound 3.16 µM
[16] = second compound 0.0316 µM, first compound 10 µM
[17] = second compound 0.1 µM, first compound 0.316 µM
[18] = second compound 0.1 µM, first compound 1 µM
[19] = second compound 0.1 µM, first compound 3.16 µM
[20] = second compound 0.1 µM, first compound 10 µM
[21] = second compound 0.316 µM, first compound 0.316 µM
[22] = second compound 0.316 µM, first compound 1 µM
[23] = second compound 0.316 µM, first compound 3.16 µM
[24] = second compound 0.316 µM, first compound 10 µM
[25] = second compound 1 µM, first compound 0.316 µM
[26] = second compound 1 µM, first compound 1 µM
[27] = second compound 1 µM, first compound 3.16 µM
[28] = second compound 1 µM, first compound 10 µM
[29] = second compound 3.16 µM, first compound 0.316 µM
[30] = second compound 3.16 µM, first compound 1 µM
[31] = second compound 3.16 µM, first compound 3.16 µM
[32] = second compound 3.16 µM, first compound 10 µM
[33] = second compound 10 µM, first compound 0.316 µM
[34] = second compound 10 µM, first compound 1 µM
[35] = second compound 10 µM, first compound 3.16 µM
[36] = second compound 10 µM, first compound 10 µM
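Note: spheroids exposed to agents for seven days before reading.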
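Throughout, for viability, T/C: 100% = DMSO vehicle control viability.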

Cn1ncnc1[C@H]1c2n[nH]c(=O)c3cc(F)cc(c23)N[C@@H]1c1ccc(F)cc1 + CN1CCN(c2cc(C(=O)Nc3cc4cc(-c5cnn(C)c5)ccc4cn3)ccn2)CC1
IC50 (second compound 0.0316 µM): > 100 nM | IC50 (second compound 0.1 µM): 1.71 nM | IC50 (second compound 0.316 µM): < 0.316 nM | IC50 (second compound 1 µM): < 0.316 nM | IC50 (second compound 3.16 µM): < 0.316 nM | IC50 (second compound 10 µM): < 0.316 nM | viability, T/C (second compound 0.0316 µM, first compound 0.000316 µM): 80.5% | viability, T/C (second compound 0.0316 µM, first compound 0.001 µM): 71% | viability, T/C (second compound 0.0316 µM, first compound 0.00316 µM): 61.8% | viability, T/C (second compound 0.0316 µM, first compound 0.01 µM): 65.4% | viability, T/C [1]: 84.7% | viability, T/C [2]: 60.3% | viability, T/C (second compound 0.1 µM, first compound 0.000316 µM): 54.1% | viability, T/C (second compound 0.1 µM, first compound 0.001 µM): 48.5% | viability, T/C (second compound 0.1 µM, first compound 0.00316 µM): 50.8% | viability, T/C (second compound 0.1 µM, first compound 0.01 µM): 43.5% | viability, T/C [3]: 50.1% | viability, T/C [4]: 42.8% | viability, T/C (second compound 0.316 µM, first compound 0.000316 µM): 21.2% | viability, T/C (second compound 0.316 µM, first compound 0.001 µM): 23.4% | viability, T/C (second compound 0.316 µM, first compound 0.00316 µM): 18.8% | viability, T/C (second compound 0.316 µM, first compound 0.01 µM): 17.7% | viability, T/C [5]: 18.8% | viability, T/C [6]: 17.2% | viability, T/C (second compound 1 µM, first compound 0.000316 µM): 1.28% | viability, T/C (second compound 1 µM, first compound 0.001 µM): 1.4% | viability, T/C (second compound 1 µM, first compound 0.00316 µM): 1.52% | viability, T/C (second compound 1 µM, first compound 0.01 µM): 1.16% | viability, T/C [7]: 1.67% | viability, T/C [8]: 1.12% | viability, T/C (second compound 3.16 µM, first compound 0.000316 µM): 0.67% | viability, T/C (second compound 3.16 µM, first compound 0.001 µM): 0.66% | viability, T/C (second compound 3.16 µM, first compound 0.00316 µM): 0.75% | viability, T/C (second compound 3.16 µM, first compound 0.01 µM): 0.62% | viability, T/C [9]: 0.71% | viability, T/C [10]: 0.48% | viability, T/C (second compound 10 µM, first compound 0.000316 µM): 0.16% | viability, T/C (second compound 10 µM, first compound 0.001 µM): 0.26% | viability, T/C (second compound 10 µM, first compound 0.00316 µM): 0.15% | viability, T/C (second compound 10 µM, first compound 0.01 µM): 0.25% | viability, T/C [11]: 0.18% | viability, T/C [12]: 0.17%

Nc1ccn(C2OC(CO)C(O)C2(F)F)c(=O)n1 (stereo unspecified) + CN1CCN(c2cc(C(=O)Nc3cc4cc(-c5cnn(C)c5)ccc4cn3)ccn2)CC1
IC50 (second compound 0.0316 µM): 43.2 nM | IC50 (second compound 0.1 µM): < 31.6 nM | IC50 (second compound 0.316 µM): < 31.6 nM | IC50 (second compound 1 µM): < 31.6 nM | IC50 (second compound 3.16 µM): < 31.6 nM | IC50 (second compound 10 µM): < 31.6 nM | viability, T/C [1]: 60.1% | viability, T/C [2]: 22.9% | viability, T/C [13]: 20.5% | viability, T/C [14]: 19.9% | viability, T/C [15]: 24.1% | viability, T/C [16]: 22.6% | viability, T/C [3]: 36% | viability, T/C [4]: 22.9% | viability, T/C [17]: 16.1% | viability, T/C [18]: 16.9% | viability, T/C [19]: 18.9% | viability, T/C [20]: 17.9% | viability, T/C [5]: 15.4% | viability, T/C [6]: 10.9% | viability, T/C [21]: 11.6% | viability, T/C [22]: 9.15% | viability, T/C [23]: 13.3% | viability, T/C [24]: 10.8% | viability, T/C [7]: 1.8% | viability, T/C [8]: 1.09% | viability, T/C [25]: 1.22% | viability, T/C [26]: 1.31% | viability, T/C [27]: 1.04% | viability, T/C [28]: 1.02% | viability, T/C [9]: 0.72% | viability, T/C [10]: 0.59% | viability, T/C [29]: 0.75% | viability, T/C [30]: 0.76% | viability, T/C [31]: 0.87% | viability, T/C [32]: 0.72% | viability, T/C [11]: 0.2% | viability, T/C [12]: 0.2% | viability, T/C [33]: 0.21% | viability, T/C [34]: 0.25% | viability, T/C [35]: 0.24% | viability, T/C [36]: 0.22%

O=c1[nH]cc(F)c(=O)[nH]1 + CN1CCN(c2cc(C(=O)Nc3cc4cc(-c5cnn(C)c5)ccc4cn3)ccn2)CC1
IC50 (second compound 0.0316 µM): 505 nM | IC50 (second compound 0.1 µM): 196 nM | IC50 (second compound 0.316 µM): < 31.6 nM | IC50 (second compound 1 µM): < 31.6 nM | IC50 (second compound 3.16 µM): < 31.6 nM | IC50 (second compound 10 µM): < 31.6 nM | viability, T/C [1]: 78.1% | viability, T/C [2]: 74.9% | viability, T/C [13]: 46.5% | viability, T/C [14]: 49.6% | viability, T/C [15]: 30.2% | viability, T/C [16]: 28.1% | viability, T/C [3]: 59.5% | viability, T/C [4]: 57.5% | viability, T/C [17]: 45.2% | viability, T/C [18]: 32.4% | viability, T/C [19]: 29% | viability, T/C [20]: 21.7% | viability, T/C [5]: 21.9% | viability, T/C [6]: 23.4% | viability, T/C [21]: 21.2% | viability, T/C [22]: 16.1% | viability, T/C [23]: 15.7% | viability, T/C [24]: 13.4% | viability, T/C [7]: 1.26% | viability, T/C [8]: 1.5% | viability, T/C [25]: 1.42% | viability, T/C [26]: 1.31% | viability, T/C [27]: 1.3% | viability, T/C [28]: 1.65% | viability, T/C [9]: 0.71% | viability, T/C [10]: 0.91% | viability, T/C [29]: 0.78% | viability, T/C [30]: 0.61% | viability, T/C [31]: 0.63% | viability, T/C [32]: 0.59% | viability, T/C [11]: 0.15% | viability, T/C [12]: 0.14% | viability, T/C [33]: 0.15% | viability, T/C [34]: 0.13% | viability, T/C [35]: 0.18% | viability, T/C [36]: 0.19%
